The test system of series [1] is HCV replication in Huh7_HBI10A cells containing a HCV-replicon. The series can be described thus: RHEPLISA assay, cell-based assay for measuring HCV replication (NS3 ELISA). Further details: species or system hepatitis C virus. The conditions noted are these: at 40 μM. How it is done:
A cell-based assay for measuring the HCV replication (RHEPLISA) was developed in a 96-well microplate format. The assay utilizes Huh-7 cellular clone (Huh7_HBI10A) containing a HCV-replicon and is based on the detection of the viral NS3 protein by ELISA. About 5000 Huh7_HBI10A cells (or Huh-7 cells as negative control), resuspended in 100 μL of complete DMEM were seeded into each well of a 96 well microtiter plate (Falcon sterile by Becton Dickinson). After 4 hours, 50 μL of an appropriate dissolution medium (e.g., DMEM) containing the compounds to test or DMSO (3%) were added, and incubated (37° C., 5% CO2) for 4 days. The medium was removed by inversion and the cells were fixed by addition of 200 μ/well of ice-cold isopropanol 100%. […]
When secondary antibody AP-conjugated was used, 100 μL of AP substrate (SIGMA 104 Phosphatase substrate tablets; i.e., one tablet in 5 ml of AP buffer: diethanolamine solution 10%, pH 9.6-9.8.) were added to each well, and the plate was read in a conventional ELISA plate reader set at 405-620 nm.
When peroxidase-conjugated secondary was used, 100 μL of TMB substrate (SIGMA) were added to each well, and the plate was incubated for 20′ in the dark. 50 μL of 0.5M H2SO4 were then added, and the plate was read in a conventional ELISA plate reader set at 450-620 nm.
(In general: In an ELISA, binding on a coated surface is turned into a signal by an enzyme label.)

The next series deals with Huh7_HBI10A cells. The series can be described thus: Cytotoxicity assay (SRB). The format is cell-based, human. Conditions: at 40 μM. How it is done: About 5000 Huh7_HBI10A cells, resuspended in 100 μL of complete DMEM were seeded into each well of a 96 well microtiter plate (Falcon sterile by Becton Dickinson) and incubated (37° C., 5% CO2) for 24 hours. The medium was removed and the cells were fixed by incubation with 50 μL of 50% TCA for 1 hour at 4° C., 200 μL of ice-cold isopropanol 100% for 20 minutes at 4° C., or 100 μL of 10% paraformaldehyde for 20 minutes at room temperature. The plate was washed with water when either TCA or paraformaldehyde was used to fix the cells and with PBS 1× when isopropanol was used to fix the cells. All washings were run 3 times. After drying the plate, 200 μL of SRB 1× solution (prepared fresh from a SRB solution 10×: 4% sulforhodamine B (Sigma) in 10% acetic acid) was added to each well and incubated for 30 minutes at room temperature. The SRB 1× solution was removed by inversion and the plate was washed in 1% acetic acid 3 times. To each well was added 200 μL of 10 mM Tris pH 10.5, the plate was shaken till the color of the solution in the wells was uniform, and the plate was read in a conventional ELISA plate reader set at 570 nm.

On to `NC(=S)NN=Cc1ccccc1` [benzaldehyde thiosemicarbazone], for which, in series [1], the “anti-HCV activity in the RHEPLISA assay” value is on record as “no anti-HCV activity”. Moreover, the cytotoxic inhibition result with Huh7_HBI10A cells was “no cytotoxic inhibition”.
